# In patent US7199113B2, “Pharmaceutically active compounds and methods of use thereof” (priority 1998, dated 2007):
# Assays:
# [1] = molecular target: T1, human recombinant TF/VIIa complex (lipidated) (Homo sapiens, UniProt P13726); assay: TF/VIIa-dependent FX activation assay; assay type: biochemical; settings: statement on FIG. 3
# T1 construct: Truncated recombinant human tissue factor (e.g. composed of 243 amino acids) is expressed in E. coli; host or cells: E. coli (TF)
# Description: A more particular example of the primary screening assay discussed previously is as follows. The assay is standard for measuring TF/VIIa-dependent factor X activation. […] In a more preferred embodiment, the primary screening preferably includes the following steps. • 1) admixing in a suitable assay solution about 0.1 nM of human recombinant TF/VIIa complex (lipidated), about 180 nM human FX, and between from about 0.5 μl to about 10 μl of at least one compound to be tested (optionally dissolved in an appropriate vehicle such as water or dimethylsulfoxide (DMSO)) and incubating the reaction at 37° C. for a few minutes up to about an hour or more, • 2) contacting the solution with a suitable chelating agent such as ethylenediaminietetra acetic acid (EDTA) to reduce or stop factor X activation, • 3) contacting the solution with a detectable amount of a chromogenic substrate specific for FXa (e.g., Spectrozyme FXa or S-2765) and incubating same at 37° C.; and • 4) detecting chromophore produced in the solution as being indicative of the factor X activation.
# The primary screening for compounds that inhibit tissue factor/factor VIIa (TF/VIIa) is based on TF/VIIa-dependent FX activation assay (See flow chart in FIG. 1 of the drawings). In this assay, the ability of TF/VIIa complex to activate FX is determined in two discontinuous stages. […] In the second stage (FXa activity assay), EDTA is added at indicated times to the FX activation mixture to chelate calcium, thus leading to the termination of FX→FXa conversion. Calcium is required for TF/VIIa activity. The activity of FXa is then measured by FXa-specific chromogenic substrates such as S-2222, S-2765, or Spectrozyme FXa. In the primary screening, compounds from a previously prepared chemical library are first tested at relatively high concentrations (˜0.833 mM) in TF/VIIa-dependent FX activation assay to identify hits of potential TF pathway antagonists (see FIG. 1). However, it is evident that the inhibition of TF/VIIa-dependent FX activation by a compound in this enzyme-coupled assay can be attributed to effects of the compound on TF/VIIa and/or FXa activities. Thus, secondary screening tests are designed to determine how inhibition takes place and the inhibition mechanism. In secondary screening experiments, effects of those compounds identified from primary screening are tested on catalytic activities of factor VIIa (FVIIa), factor IXa (FIXa), factor Xa (FXa), thrombin, Russell's viper venom (RVV), and trypsin.
# Primary screening was done in duplicate in 96-well plates using the TF/VIIa-dependent FX activation assay. All compounds to be screened were dissolved in dimethyl sulfoxide (DMSO), other reagents were prepared or diluted in 25 mM HEPES-NaOH, 5 mM CaCl2, 150 mM NaCl, 0.1% BSA, pH 7.5. For assays where TF was used, purified human recombinant TF (100 nM) was first lipidated with phosphatidylcholine (0.07 mg/ml) and phosphatidylserine (0.03 mg/ml) in 50 mM Tris-HCl, pH 7.5, 0.1% bovine serum albumin (BSA) for 30 minutes at 37° C. A stock solution of TF/VIIa complex was then prepared by combining equal volumes of 100 nM lipidated TF and 100 nM FVIIa The complex was incubated at 37° C. for 30 minutes and then was aliquoted and stored at −70° C. for future uses.
# For screening assays, 5 μl of each compound (about 10 mM in DMSO) or DMSO were placed in each well of a 96-well plate, followed by adding 45 μl of TF/VIIa complex (0.1 nM). The components in each well were mixed either with pipette tips or by shaking the plate on a Lab-Line titer plate shaker for 30 seconds. After 15 minutes incubation of the plate at a 37° C., 10 μl of human FX (180 nM) was added to each well and mixed as above. The plate was then incubated at 37° C. for 3 to 15 minutes, followed by addition of 10 μl of EDTA (400 mM in 144 mM HEPES, 864 mM NaCl, 0.576% BSA, pH adjusted to 7.5) to each well to terminate FX activation. […]
# [2] = molecular target: T2, TF/VIIa complex (Homo sapiens, UniProt P13726); assay: TF/VIIa-dependent FIX activation assay; assay type: biochemical; settings: statement on FIG. 3
# T2 construct: Truncated recombinant human tissue factor (e.g. composed of 243 amino acids) is expressed in E. coli; host or cells: E. coli (TF)
# Description: In a more particular embodiment, the standard assay preferably includes the following steps: • 1) admixing in a suitable assay solution about 0.7 nM TF/VIIa complex with 300 nM factor IX and 1000 nM factor X, and from between about 0.5 μl to about 10 μl of at least one compound to be tested (optionally dissolved in an appropriate vehicle such as water or dimethylsulfoxide (DMSO)) and incubating the solution at 37° C. from between about a few minutes up to about an hour under conditions suitable for forming FIXa and FXa; • 2) contacting the solution with a suitable chelating agent such as EDTA to stop FIX activation; • 3) contacting the solution with a chromogenic substrate specific for the FXa (e.g., Spectrozyme FXa) and incubating same at 37° C.; and • 4) detecting chromophore in the solution as being indicative of the factor IX activation.
# TF/VIIa is not only able to activate FX, but is also able to convert FIX to FIXa. To examine whether the two antagonists 1 and 2 were able to block FIX activation catalyzed by TF/VIIa. FIX activation experiment was conducted. To each well of a 96-well plate, 5 μl of diluted DMSO or compound was added, followed by 45 μl of TF/VIIa (0.67 nM). After mixing and incubating for 15 minutes at 37° C., 10 μl of FIX (300 nM) was added and incubated for 10 minutes at 37° C. 10 μl of EDTA ([…] in 144 mM HEPES, […], 0.576% BSA, pH adjusted to 7.5) was added, followed by addition of 10 μl of FX (1000 nM), 10 μl of polylysine, and 10 μl of Spectrozyme FXa (6 mM). After 3 hour incubation at 37° C., absorbance at 405 nm was measured following addition of 20 μl of 50% acetic acid. The percent inhibition of TF/VIIa-dependent FIX activation was calculated from OD405 nm values in the absence and presence of a compound.
# [3] = molecular target: T3, TF (243 form lipidated or 219 form unlipidated) (Homo sapiens, UniProt P13726); assay: Isothermal calorimetry analysis of binding to TF
# T3 construct: made in house; host or cells: E. coli (stated for the 243-aa form)
# T3 sequence (P13726 33-251): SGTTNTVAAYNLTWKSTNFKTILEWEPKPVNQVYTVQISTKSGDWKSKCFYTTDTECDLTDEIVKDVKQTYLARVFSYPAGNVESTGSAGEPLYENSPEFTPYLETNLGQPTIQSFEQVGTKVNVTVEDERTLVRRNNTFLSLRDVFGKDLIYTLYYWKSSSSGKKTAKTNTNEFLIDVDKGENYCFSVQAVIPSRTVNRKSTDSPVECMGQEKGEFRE
# T2 sequence (P13726 33-275 limits assumed): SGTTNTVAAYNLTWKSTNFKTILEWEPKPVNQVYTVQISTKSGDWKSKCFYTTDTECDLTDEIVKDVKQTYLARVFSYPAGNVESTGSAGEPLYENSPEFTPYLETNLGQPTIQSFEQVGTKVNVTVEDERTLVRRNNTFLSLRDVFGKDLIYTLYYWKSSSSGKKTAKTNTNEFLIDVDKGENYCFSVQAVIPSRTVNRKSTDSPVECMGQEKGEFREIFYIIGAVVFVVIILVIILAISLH
# T2 sequence (P08709 61-212 partner limits assumed): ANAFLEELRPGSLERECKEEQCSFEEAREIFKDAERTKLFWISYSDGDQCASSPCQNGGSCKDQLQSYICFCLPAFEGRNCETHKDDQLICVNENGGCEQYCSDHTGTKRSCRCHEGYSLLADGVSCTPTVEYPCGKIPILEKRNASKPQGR
# T2 sequence (P08709 213-466 partner limits assumed): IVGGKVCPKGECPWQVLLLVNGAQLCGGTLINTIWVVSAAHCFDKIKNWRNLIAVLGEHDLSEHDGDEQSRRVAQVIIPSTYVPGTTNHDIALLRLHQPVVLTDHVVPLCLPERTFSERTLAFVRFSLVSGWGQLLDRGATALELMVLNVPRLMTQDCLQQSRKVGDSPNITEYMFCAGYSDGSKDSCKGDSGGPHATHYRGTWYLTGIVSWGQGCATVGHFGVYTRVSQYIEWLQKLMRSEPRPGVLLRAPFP
# T1 sequence (P13726 33-275 limits assumed): as the sequence (P13726 33-275 limits assumed) above
# T1 sequence (P08709 61-212 partner limits assumed): as the sequence (P08709 61-212 partner limits assumed) above
# T1 sequence (P08709 213-466 partner limits assumed): as the sequence (P08709 213-466 partner limits assumed) above
blocking activity in standard assay for TF/VIIa-dependent factor X activation [1],blocking activity in standard assay for TF/VIIa-dependent factor IX activation [2],binding to TF [3],Molecule
good blocking activity,good blocking activity,–,Cc1ccc(NCC(P(=O)(O)O)P(=O)(O)O)cc1 [Compound 4]
good blocking activity,good blocking activity,–,"NCCCC(O)(P(=O)(O)O)P(=O)(O)O [Fosamax, reference compound]"

# Further lines, the molecule ahead of its results:
Molecule,blocking activity in standard assay for TF/VIIa-dependent factor X activation [1],blocking activity in standard assay for TF/VIIa-dependent factor IX activation [2],binding to TF [3]
Nc1ccc(NCC(P(=O)(O)O)P(=O)(O)O)cc1 [Compound 3],good blocking activity,good blocking activity,–
O=P(O)(O)C(COc1ccccc1)P(=O)(O)O [Compound 6],good blocking activity,good blocking activity,–
1-(bisphosponate)-2-amino(3-hydroxyphenyl)ethyl [Compound 1],–,–,directly observed
